Earlier results, collected in patent US9622967B2, “Highly stable compositions of orally active nucleotide analogues or orally active nucleotide analogue prodrugs” (Sigmapharm Laboratories, LLC, priority 2010, dated 2017).
Where a name gives a salt, the structure may show the parent alone.

CC(C)OC(=O)OCOP(=O)(CO[C@H](C)Cn1cnc2c(N)ncnc21)OCOC(=O)OC(C)C [tenofovir disoproxil fumarate]
monoester mono(POC)-PMPA formed, weight percentage (3 days at 60° C. and 75% RH): 3.1% | monoester mono(POC)PMPA already formed soon after production (soon after production): up to 1.0 % w/w
